Measured values reported in patent publication US8940727B2, “Benzazepine compound” (Otsuka Pharmaceutical Co., Ltd., priority 2009, dated 2015).

Test: Metabolic stability assay in human liver microsomes
Format: in vitro ADME
Details: for microsomal CLint at 1 μM: human liver microsomes 0.2 mg/mL, test compound 1 μM, NADPH/NADH, n = 4, read-out: hepatic intrinsic clearance (Clint)
Protocol: The following reaction system was prepared with reference to the method disclosed by Obach, and that disclosed by Jones et al. (References 1 and 2), and the metabolic stability thereof was evaluated. Note that the human liver microsomes used were purchased from BD Gentest. The test compound was dissolved in DMSO to have a concentration of 10 mM and diluted with acetonitrile in such a manner that its concentration became 100 μM.
A reaction system without a coenzyme was preincubated at 37° C. for 5 minutes, and a coenzyme was then added to start the reaction. After the addition of the coenzyme, the incubation was performed at selected time intervals, i.e., 0, 5, 10, 20, 30 and 60 minutes to extract a portion of the reaction mixture. The extracted reaction mixture was added to an acetonitrile solution containing an internal standard substance and the reaction was then terminated.
After the reaction was terminated, the resulting mixture was centrifuged, the supernatant was poured into a liquid chromatograph tandem mass spectrometer (LC-MS/MS) to determine the level of unchanged substance remaining in the reaction system. Ionization was performed by electro-spray ionization (ESI) in a positive ion detection mode. Here, selected reaction monitoring (MRM) using preset precursor ions and product ions was employed.
The remaining ratio of the test compound was calculated by the following equation. Remaining ratio=(peak area of the test compound at the reaction time of t minutes/peak area of the internal standard substance)÷(peak area of the test compound at the reaction time of 0 minutes/peak area of the internal standard substance)
A nonlinear least-squares analysis was performed in terms of the remaining ratio and incubation time to obtain the elimination rate constant (0.693/t1/2), and, further, the hepatic intrinsic clearance (Clint) was obtained using the following Formula (1). Clint (μL/min/mg)=(0.693/t1/2)÷0.2 (mg/mL)×1000 (1) […]

| microsomal CLint at 1 μM [µL/min/mg] | Structure (SMILES) | metabolic stability compared to tolvaptan (human liver microsomes, two-tailed Dunnett's test, p<0.001) |
| --- | --- | --- |
| 214 ± 4.3 | Cc1ccccc1C(=O)Nc1ccc(C(=O)N2CCCC(O)c3cc(Cl)ccc32)c(C)c1 (stereo not drawn) [Tolvaptan, tolvaptan, reference compound] |  |
| 166 ± 5.3 | [2H]C1([2H])CC([2H])([2H])C([2H])(O)c2cc(Cl)ccc2N1C(=O)c1ccc(NC(=O)c2ccccc2C)cc1C (stereo not drawn) [Example 4, N-(4-(7-chloro-5-hydroxy-2,2,4,4,5-pentadeutero-1H-benzo[b]azepine-1-carbonyl)-3-methylphenyl)-2-methylbenzamide] | significantly improved metabolic stability compared to tolvaptan |
